# Data as given in PubChem BioAssay AID248 (DTP/NCI, 2004).
# “And” between values parts separate entries of the source, which are not always exact repeats. Identical values can stand only once. Toxic doses and inconclusive results are not listed.
# System: L1210 leukemia ip in BDF1 mice, survival T/C
# Experiment: NCI In Vivo Anticancer Drug Screen. Data for tumor model L1210 Leukemia (intraperitoneal) in B6D2F1 (BDF1) mice
# Conditions: endpoint: mean survival time, higher = longer survival
# In short: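 Survival endpoint. Drug-treated group vs vehicle group, expressed as T divided by C. Tumor passaged by transplantation.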
# [1] = dose: 100.0 mg/kg/injection, schedule: Q04DX003 (ip), vehicle: Klucel (hydroxypropylcellulose) (HPC)
# [2] = dose: 200.0 mg/kg/injection, schedule: Q04DX003 (ip), vehicle: Klucel (hydroxypropylcellulose) (HPC)
# [3] = dose: 400.0 mg/kg/injection, schedule: Q04DX003 (ip), vehicle: Klucel (hydroxypropylcellulose) (HPC)
# [4] = dose: 100.0 mg/kg/injection, schedule: Q04DX003 (ip), vehicle: saline with Tween-80
# [5] = dose: 200.0 mg/kg/injection, schedule: Q04DX003 (ip), vehicle: saline with Tween-80
# [6] = dose: 400.0 mg/kg/injection, schedule: Q04DX003 (ip), vehicle: saline with Tween-80
# [7] = dose: 100.0 mg/kg/injection, schedule: Q01DX001 (ip), vehicle: carboxymethylcellulose (CMC)
# [8] = dose: 200.0 mg/kg/injection, schedule: Q01DX001 (ip), vehicle: carboxymethylcellulose (CMC)
# [9] = dose: 100.0 mg/kg/injection, schedule: Q01DX001 (ip), vehicle: saline
# [10] = dose: 200.0 mg/kg/injection, schedule: Q01DX001 (ip), vehicle: saline
# [11] = dose: 400.0 mg/kg/injection, schedule: Q01DX001 (ip), vehicle: saline
# [12] = dose: 100.0 mg/kg/injection, schedule: Q01DX001 (ip), vehicle: other
# [13] = dose: 200.0 mg/kg/injection, schedule: Q01DX001 (ip), vehicle: other
# [14] = dose: 400.0 mg/kg/injection, schedule: Q01DX001 (ip), vehicle: other
# [15] = dose: 50.0 mg/kg/injection, schedule: Q01DX009 (ip), vehicle: Klucel (hydroxypropylcellulose) (HPC)
# [16] = dose: 100.0 mg/kg/injection, schedule: Q01DX009 (ip), vehicle: Klucel (hydroxypropylcellulose) (HPC)
# [17] = dose: 200.0 mg/kg/injection, schedule: Q01DX009 (ip), vehicle: Klucel (hydroxypropylcellulose) (HPC)
# [18] = dose: 100.0 mg/kg/injection, schedule: Q01DX009 (ip), vehicle: saline
# [19] = dose: 25.0 mg/kg/injection, schedule: Q01DX009 (ip), vehicle: saline with Tween-80
# [20] = dose: 100.0 mg/kg/injection, schedule: Q01DX009 (ip), vehicle: saline with Tween-80
structure (smiles),measurement,setting,value
CC(=O)c1ccc(CC2CC3CCC2C3)cc1 (stereo not drawn),T/C,"dose: 100.0 mg/kg/injection, schedule: Q01DX001 (ip), vehicle: Klucel (hydroxypropylcellulose) (HPC)",112 % of control
same,T/C,[1],94 % of control
same,T/C,"dose: 200.0 mg/kg/injection, schedule: Q01DX001 (ip), vehicle: Klucel (hydroxypropylcellulose) (HPC)",96 % of control
same,T/C,[2],89 % of control
same,T/C,"dose: 400.0 mg/kg/injection, schedule: Q01DX001 (ip), vehicle: Klucel (hydroxypropylcellulose) (HPC)",89 % of control
same,T/C,[3],98 % of control
CCC(C)OC(=O)Nc1cccc(OC(=O)NC)c1 (stereo not drawn),T/C,[4],104 % of control
same,T/C,[5],94 % of control
same,T/C,[6],97 % of control
NC(=Nc1ccc([N+](=O)[O-])cc1)c1ccccc1,T/C,[4],98 % of control
same,T/C,[5],102 % of control
same,T/C,[6],100 % of control
COc1ccc(-c2ccccc2C(=O)O)cc1,T/C,[7],107 % of control
same,T/C,[8],96 % of control
same,T/C,"dose: 400.0 mg/kg/injection, schedule: Q01DX001 (ip), vehicle: carboxymethylcellulose (CMC)",100 % of control
CCOC(=O)c1c(C)c(-c2ccccc2F)nc2ccccc12,T/C,[9],103 % of control
same,T/C,[10],94 % of control
CCCCCCC1CC(=O)CC(=O)C1,T/C,[9],101 % of control
same,T/C,[10],98 % of control
same,T/C,[11],95 % of control
O=C(CS)CS,T/C,"dose: 6.25 mg/kg/injection, schedule: Q01DX009 (ip), vehicle: water",102 % of control
same,T/C,"dose: 12.5 mg/kg/injection, schedule: Q01DX009 (ip), vehicle: water",114 % of control
same,T/C,"dose: 25.0 mg/kg/injection, schedule: Q01DX009 (ip), vehicle: water",98 % of control and 105 % of control
same,T/C,"dose: 25.0 mg/kg/injection, schedule: Q04DX003 (ip), vehicle: water",102 % of control
same,T/C,"dose: 50.0 mg/kg/injection, schedule: Q01DX009 (ip), vehicle: water",97 % of control and 103 % of control
same,T/C,"dose: 50.0 mg/kg/injection, schedule: Q04DX003 (ip), vehicle: water",91 % of control
same,T/C,"dose: 100.0 mg/kg/injection, schedule: Q04DX003 (ip), vehicle: water",97 % of control
N/N=C/c1ccccc1[N+](=O)[O-],T/C,[12],97 % of control
same,T/C,[13],95 % of control
same,T/C,[14],111 % of control
CCCc1cc2c3c(c(=O)oc2cc1OC)CCCC3,T/C,[4],93 % of control
same,T/C,[5],104 % of control
same,T/C,[6],93 % of control
O=C1C[C@H]2[C@H](CO)[C@@H](OC(=O)c3ccc(-c4ccccc4)cc3)C[C@H]2O1,T/C,"dose: 12.5 mg/kg/injection, schedule: Q01DX009 (ip), vehicle: alcohol",103 % of control
same,T/C,"dose: 25.0 mg/kg/injection, schedule: Q01DX009 (ip), vehicle: alcohol",101 % of control
same,T/C,"dose: 50.0 mg/kg/injection, schedule: Q01DX009 (ip), vehicle: alcohol",98 % of control
CC1=CC(c2c(O)cccc2O)C(=C(C)C)CC1 (stereo not drawn),T/C,[15],95 % of control
same,T/C,[16],95 % of control
same,T/C,[17],95 % of control
O=S(=O)(C(Cl)(Cl)Cl)C(Cl)(Cl)Cl,T/C,"dose: 25.0 mg/kg/injection, schedule: Q01DX009 (ip), vehicle: Klucel (hydroxypropylcellulose) (HPC)",95 % of control
same,T/C,[15],98 % of control
same,T/C,[16],93 % of control
CCCCOP(=O)(OCCCC)SCl,T/C,"dose: 100.0 mg/kg/injection, schedule: Q04DX002 (ip), vehicle: saline with Tween-80",95 % of control
same,T/C,"dose: 200.0 mg/kg/injection, schedule: Q04DX002 (ip), vehicle: saline with Tween-80",92 % of control
Nc1csnn1,T/C,"dose: 50.0 mg/kg/injection, schedule: Q01DX001 (ip), vehicle: carboxymethylcellulose (CMC)",98 % of control
same,T/C,[7],96 % of control
same,T/C,[8],98 % of control
C#CCN,T/C,[9],103 % of control
same,T/C,[18],94 % of control
same,T/C,[10],102 % of control
same,T/C,"dose: 200.0 mg/kg/injection, schedule: Q01DX009 (ip), vehicle: saline",96 % of control
same,T/C,[11],102 % of control
same,T/C,"dose: 400.0 mg/kg/injection, schedule: Q01DX009 (ip), vehicle: saline",93 % of control
Nc1nc2nc(N=Nc3ccc(S(=O)(=O)O)cc3)[nH]c2c(=O)[nH]1,T/C,[1],93 % of control
same,T/C,[2],93 % of control
same,T/C,[3],93 % of control
CC(=O)OCC1OC(n2cc(C)c(=O)[nH]c2=O)C(OC(C)=O)C(OC(C)=O)C1OC(C)=O (stereo not drawn),T/C,[9],94 % of control
same,T/C,[10],105 % of control
same,T/C,[11],97 % of control
CC(=O)CC(=O)NCCCN1CCCCC1,T/C,"dose: 12.5 mg/kg/injection, schedule: Q01DX009 (ip), vehicle: saline with Tween-80",103 % of control
same,T/C,"dose: 12.5 mg/kg/injection, schedule: Q04DX003 (ip), vehicle: saline with Tween-80",103 % of control
same,T/C,[19],100 % of control
same,T/C,"dose: 25.0 mg/kg/injection, schedule: Q04DX003 (ip), vehicle: saline with Tween-80",106 % of control
same,T/C,"dose: 50.0 mg/kg/injection, schedule: Q04DX003 (ip), vehicle: saline with Tween-80",97 % of control and 103 % of control
CC(=O)Oc1c2ccccc2c(OC(C)=O)c2[nH]c(-c3ccccc3)cc12,T/C,[1],90 % of control
same,T/C,[2],93 % of control
same,T/C,[3],90 % of control
CC[N+]([O-])(CC)CCNc1ccc(CO)c2sc3ccccc3c(=O)c12,T/C,"dose: 50.0 mg/kg/injection, schedule: Q01DX009 (ip), vehicle: saline",92 % of control
same,T/C,[18],121 % of control
CCCCCCCCCCCC(=O)Nc1cc(C(C)C)ccc1C,T/C,[9],87 % of control
same,T/C,"dose: 100.0 mg/kg/injection, schedule: Q04DX003 (ip), vehicle: saline",88 % of control
same,T/C,[10],86 % of control
same,T/C,[11],91 % of control
Cc1cccc(N2C(=O)CSC2=S)c1,T/C,[19],90 % of control
same,T/C,[20],92 % of control
C/C=C(\C)C(=NC)Nc1ccc(Cl)c(Cl)c1,T/C,"dose: 222.0 mg/kg/injection, schedule: Q01DX Z (ip), vehicle: methylcellulose (MC)",94 % of control
same,T/C,"dose: 333.0 mg/kg/injection, schedule: Q01DX Z (ip), vehicle: methylcellulose (MC)",90 % of control
N#C/C(=C\c1ccc(Cl)cc1)c1cccc2ccccc12,T/C,[16],92 % of control
same,T/C,[17],92 % of control
same,T/C,"dose: 400.0 mg/kg/injection, schedule: Q01DX009 (ip), vehicle: Klucel (hydroxypropylcellulose) (HPC)",90 % of control
S=C(Nc1ccccc1)c1ccccn1,T/C,[20],102 % of control
same,T/C,"dose: 200.0 mg/kg/injection, schedule: Q01DX009 (ip), vehicle: saline with Tween-80",100 % of control
same,T/C,"dose: 400.0 mg/kg/injection, schedule: Q01DX009 (ip), vehicle: saline with Tween-80",90 % of control
CCC[N+]12CC=C(CO)C1C(O)CC2 (stereo not drawn),T/C,[9],103 % of control
same,T/C,[10],100 % of control
same,T/C,[11],110 % of control
Nc1nnnc2c1cnn2C1OC(CO)C(O)C1O (stereo not drawn),T/C,[12],97 % of control
same,T/C,[13],101 % of control
same,T/C,[14],101 % of control
Nc1[nH][nH]c(=O)c1N=O,T/C,[15],95 % of control
same,T/C,[16],111 % of control
same,T/C,"dose: 100.0 mg/kg/injection, schedule: Q04DX002 (ip), vehicle: saline",103 % of control
same,T/C,[17],88 % of control
same,T/C,"dose: 200.0 mg/kg/injection, schedule: Q04DX002 (ip), vehicle: saline",111 % of control
same,T/C,"dose: 400.0 mg/kg/injection, schedule: Q04DX002 (ip), vehicle: saline",92 % of control
COC(=O)C1(C)COP(=O)(N2CC2C)OC1 (stereo not drawn),T/C,[9],101 % of control
same,T/C,[10],101 % of control
same,T/C,[11],97 % of control
O=NN(CCCl)C(=O)Nc1ccc(F)cc1,T/C,"dose: 9.37 mg/kg/injection, schedule: Q01DX001 (ip), vehicle: carboxymethylcellulose (CMC)",150 % of control
same,T/C,"dose: 12.5 mg/kg/injection, schedule: Q01DX001 (ip), vehicle: carboxymethylcellulose (CMC)",162 % of control
same,T/C,"dose: 18.75 mg/kg/injection, schedule: Q01DX001 (ip), vehicle: carboxymethylcellulose (CMC)",171 % of control
same,T/C,"dose: 25.0 mg/kg/injection, schedule: Q01DX001 (ip), vehicle: carboxymethylcellulose (CMC)",253 % of control
same,T/C,"dose: 37.5 mg/kg/injection, schedule: Q01DX001 (ip), vehicle: carboxymethylcellulose (CMC)",171 % of control
